Assay results: patent US20240270715A1, “INHIBITORS OF TRANSGLUTAMINASES” (ZEDIRA GMBH, priority 2021, published 2024)

Assays:
[1] = target: T1, recombinant human transglutaminase 2 (Homo sapiens, UniProt P21980); experiment: Transglutaminase assay: incorporation of dansylcadaverine into dimethylcasein (DCC-assay); format: biochemical; settings: recombinant human TG2 10 nM, dansylcadaverine/dimethylcasein; read-out: IC50 TG2
T1 sequence (P21980 1-687): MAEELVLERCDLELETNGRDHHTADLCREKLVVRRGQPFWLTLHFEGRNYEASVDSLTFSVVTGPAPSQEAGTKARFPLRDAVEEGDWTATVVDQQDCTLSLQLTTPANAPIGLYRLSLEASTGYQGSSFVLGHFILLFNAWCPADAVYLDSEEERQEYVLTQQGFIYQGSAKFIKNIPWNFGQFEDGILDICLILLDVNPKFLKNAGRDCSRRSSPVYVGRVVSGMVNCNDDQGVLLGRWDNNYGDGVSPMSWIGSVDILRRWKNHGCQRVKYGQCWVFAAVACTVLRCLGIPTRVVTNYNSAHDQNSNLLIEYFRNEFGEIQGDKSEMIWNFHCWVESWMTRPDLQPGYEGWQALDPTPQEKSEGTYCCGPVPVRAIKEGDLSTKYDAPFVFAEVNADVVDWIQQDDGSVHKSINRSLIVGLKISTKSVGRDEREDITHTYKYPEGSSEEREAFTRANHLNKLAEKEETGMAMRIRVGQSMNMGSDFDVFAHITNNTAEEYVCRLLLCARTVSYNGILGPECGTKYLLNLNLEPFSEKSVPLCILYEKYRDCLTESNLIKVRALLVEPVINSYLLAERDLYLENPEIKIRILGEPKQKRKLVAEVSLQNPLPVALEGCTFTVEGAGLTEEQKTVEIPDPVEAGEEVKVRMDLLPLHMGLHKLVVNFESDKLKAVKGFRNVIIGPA
Method in brief: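 Recombinant human TG2 (10 nM final) incorporates dansylcadaverine (16.7 μM) into N,N-dimethylcasein (4 μM) in Tris-HCl buffer, pH 8.0, with 10 mM CaCl2 and 10 mM glutathione. Fluorescence (λex 330, λem 500 nm) followed 30 min. The slope between 20–30 min gives activity versus DMSO control, and IC50 comes from the concentration–activity plot.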

[2] = Log D by shake flask method (octanol / PBS pH 7.4, HPLC); format: physicochemical; settings: octanol / PBS pH 7.4, shake flask; read-out: logD
Method in brief: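 Shake-flask partitioning of compound between octanol and PBS at pH 7.4, with phase concentrations quantified by HPLC. The value reported is Log D.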

[3] = Caco-2 permeability assay (CacoReady kit); format: in vitro ADME; settings: human
Method in brief: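 Apparent permeability coefficients (Papp) were measured across Caco-2 cell barriers using a ready-to-use kit run per the supplier's protocol. Values serve as a predictor of oral/intestinal bioavailability.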

Compound | IC50 [1] [µM] | logD [2] | Papp [3] [nm/s]
CCNC(=O)C(=O)CC[C@H](NC(=O)c1sc(Br)cc1Br)C(=O)Nc1cccn(CC(=O)NC2C3CC4CC(C3)CC2C4)c1=O (stereo partly drawn) [Compound I-44, (S)-2-(3,5-dibromothiophene-2-carboxamido)-N6-ethyl-N1-(1-(2-(2-adamantylamino)-2-oxoethyl)-2-oxo-1,2-dihydropyridin-3-yl)-5-oxohexanediamide] | < 0.15 | 3 to 5 | 10 to 100
CCNC(=O)C(=O)CC[C@H](NC(=O)c1cncn1C)C(=O)Nc1cccn(CC(=O)NC[C@@H]2CC[C@@H]3C[C@H]2C3(C)C)c1=O [Compound I-14, (S)-N1-(1-(2-(((1R,2R,5R)-6,6-dimethylbicyclo[3.1.1]heptan-2-yl)methylamino)-2-oxoethyl)-2-oxo-1,2-dihydropyridin-3-yl)-N6-ethyl-2-(1-methyl-1H-imidazole-5-carboxamido)-5-oxohexanediamide] | 0.15 to 0.6 | 1 to 3 | < 10
CCNC(=O)C(=O)CC[C@H](NC(=O)c1sc(C(F)(F)F)nc1C)C(=O)Nc1cccn(CC(=O)NC2C3CC4CC(C3)CC2C4)c1=O (stereo partly drawn) [Compound I-40, (S)-N1-ethyl-N6-(1-(2-(2-adamantylamino)-2-oxoethyl)-2-oxo-1,2-dihydropyridin-3-yl)-5-(4-methyl-2-(trifluoromethyl)thiazole-5-carboxamido)-2-oxohexanediamide] | < 0.15 | 1 to 3 | 10 to 100
CCNC(=O)C(=O)CC[C@H](NC(=O)c1oc2ccccc2c1C)C(=O)Nc1cccn(CC(=O)NC2C3CC4CC(C3)CC2C4)c1=O (stereo partly drawn) [Compound I-31, (S)-N1-ethyl-N6-(1-(2-(2-adamantylamino)-2-oxoethyl)-2-oxo-1,2-dihydropyridin-3-yl)-5-(3-methylbenzofuran-2-carboxamido)-2-oxohexanediamide] | < 0.15 | 3 to 5 | 10 to 100
CCNC(=O)C(=O)CC[C@H](NC(=O)c1cncn1C)C(=O)Nc1cccn(CC(=O)N(C)C23CC4CC(CC(C4)C2)C3)c1=O [Compound I-3, (S)-N1-ethyl-N6-(1-(2-(1-adamantyl(methyl)amino)-2-oxoethyl)-2-oxo-1,2-dihydropyridin-3-yl)-5-(1-methyl-1H-imidazole-5-carboxamido)-2-oxohexanediamide] | 0.6 to 3.5 | 1 to 3 | < 10

Further lines, results first:

IC50 [1] [µM] | logD [2] | Papp [3] [nm/s] | Compound
0.15 to 0.6 | 1 to 3 | 10 to 100 | CCNC(=O)C(=O)CC[C@H](NC(=O)c1nc(Cl)sc1Cl)C(=O)Nc1cccn(CC(=O)NC2C3CC4CC(C3)CC2C4)c1=O (stereo partly drawn) [Compound I-48, (S)-2-(2,5-dichlorothiazole-4-carboxamido)-N6-ethyl-N1-(1-(2-(2-adamantylamino)-2-oxoethyl)-2-oxo-1,2-dihydropyridin-3-yl)-5-oxohexanediamide]
0.6 to 3.5 | 1 to 3 | < 10 | CCNC(=O)C(=O)CC[C@H](NC(=O)c1cn2ccsc2n1)C(=O)Nc1cccn(CC(=O)N[C@@H]2C[C@@H]3CC[C@H]2C3)c1=O [Compound I-98, (S)-N1-(1-(2-((1S,2R,4R)-bicyclo[2.2.1]heptan-2-ylamino)-2-oxoethyl)-2-oxo-1,2-dihydropyridin-3-yl)-N6-ethyl-2-(imidazo[2,1-b]thiazole-6-carboxamido)-5-oxohexanediamide]
< 0.15 | < 1 | < 10 | CCNC(=O)C(=O)CC[C@H](NC(=O)c1cccnc1)C(=O)Nc1cccn(CC(=O)NC23CC4CC(CC(C4)C2)C3)c1=O [Compound I-121, (S)-N1-ethyl-N6-(1-(2-(3,5-dimethyladamantane-1-amino)-2-oxoethyl)-2-oxo-1,2-dihydropyridin-3-yl)-5-(nicotinamido)-2-oxohexanediamide]
< 0.15 | < 1 | 10 to 100 | CCNC(=O)C(=O)CC[C@H](NC(=O)c1oc2ccccc2c1C)C(=O)Nc1cccn(CC(=O)NC23CC(C2)C3)c1=O [Compound I-88, (S)-N1-(1-(2-(bicyclo[1.1.1]pentan-1-ylamino)-2-oxoethyl)-2-oxo-1,2-dihydropyridin-3-yl)-N6-ethyl-2-(3-methylbenzofuran-2-carboxamido)-5-oxohexanediamide]
